Target: T1, GlyT-1 C (Homo sapiens, UniProt P48067)
T1 construct: expressed in transfected cells; QT-6 quail fibroblast cells are called preferred
T1 sequence (P48067 1-706): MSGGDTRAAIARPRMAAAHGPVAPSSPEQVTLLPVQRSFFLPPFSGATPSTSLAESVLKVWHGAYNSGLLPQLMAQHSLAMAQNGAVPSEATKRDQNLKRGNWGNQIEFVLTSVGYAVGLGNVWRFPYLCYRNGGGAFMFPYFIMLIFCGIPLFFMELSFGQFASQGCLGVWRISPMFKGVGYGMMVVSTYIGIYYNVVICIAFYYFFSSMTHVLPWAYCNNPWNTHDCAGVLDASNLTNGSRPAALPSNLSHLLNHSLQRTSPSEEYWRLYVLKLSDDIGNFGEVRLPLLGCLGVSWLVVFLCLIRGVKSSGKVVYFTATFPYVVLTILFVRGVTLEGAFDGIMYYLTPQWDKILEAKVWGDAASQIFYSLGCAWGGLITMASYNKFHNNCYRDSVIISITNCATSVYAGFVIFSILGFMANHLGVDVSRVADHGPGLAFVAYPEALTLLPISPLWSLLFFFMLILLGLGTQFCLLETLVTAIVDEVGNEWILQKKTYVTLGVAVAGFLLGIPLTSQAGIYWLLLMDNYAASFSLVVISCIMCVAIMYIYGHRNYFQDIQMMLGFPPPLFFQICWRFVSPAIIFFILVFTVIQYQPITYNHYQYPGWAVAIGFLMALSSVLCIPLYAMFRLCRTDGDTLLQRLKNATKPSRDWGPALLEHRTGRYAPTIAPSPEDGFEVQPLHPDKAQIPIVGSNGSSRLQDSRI
Test: Assay of transport via GlyT-1: [3H]glycine uptake by stably transfected cells
Format: cell-based
Conditions: cells stably transfected with GlyT-1 C; 50 nM [3H]glycine, 30 minutes at 37° C.; read-out: GlyT1 uptake IC50
From the text: For use in assaying for activity in inhibiting glycine transport, eukaryokic cells, preferably QT-6 cells derived from quail fibroblasts, have been transfected to express one of the three known variants of human GlyT-1, namely GlyT-1a, GlyT-1b or GlyT-1c, or human GlyT-2. The sequences of these GlyT-1 transporters are described in Kim et al., Molec. Pharm. 45: 608-617, 1994, excepting that the sequence encoding the extreme N-terminal of GlyT-1a was merely inferred from the corresponding rat-derived sequence. This N-terminal protein-encoding sequence has now been confirmed to correspond to that inferred by Kim et al. The sequence of the human GlyT-2 is described by Albert et al., U.S. Pat. No. 919,653 issued July 1999, which is incorporated herein by reference in its entirety. Suitable expression vectors include pRc/CMV (Invitrogen), Zap Express Vector (Stratagene Cloning Systems, LaJolla, Calif.; hereinafter “Stratagene”), pBk/CMV or pBk-RSV vectors (Stratagene), Bluescript II SK +/− Phagemid Vectors (Stratagene), LacSwitch (Stratagene), pMAM and pMAM neo (Clontech), among others. A suitable expression vector is capable of fostering expression of the included GlyT DNA in a suitable host cell, preferably a non-mammalian host cell, which can be eukaryotic, fungal, or prokaryotic. Such preferred host cells include amphibian, avian, fungal, insect, and reptilian cells.
This example illustrates a method for the measurement of glycine uptake by transfected cultured cells.
Cells stably transfected with GlyT-1 C (see Kim, et al., Molecular Pharmacology, 45, 1994:608-617) were washed twice with HEPES buffered saline (HBS). The cells were then incubated for 10 minutes at 37° C. with either (a) no potential competitor, (b) 10 mM non-radioactive glycine or (c) a concentration of a candidate drug. A range of concentrations of the candidate drug was used to generate data for calculating the concentration resulting in 50% of the effect (e.g., the IC50s, which are the concentrations of drug inhibiting glycine uptake by 50%). A solution was then added containing [^3H]glycine at a final concentration of 50 nM (17.5 Ci/mmol). The cells were then incubated with gentle shaking for another 30 minutes at 37° C., after which the reaction mixture was aspirated and washed three times with ice-cold HBS. The cells were lysed with scintillant and allowed to equilibrate. The radioactivity in the cells was determined using a scintillation counter. Data was compared between the same cells contacted or not contacted by a candidate agent, depending on the assay being conducted.

Q: For COc1ccc([N+](=O)[O-])cc1NC(=O)N[C@@H](C(=O)Nc1ccc2c(c1)CCC2)c1ccccc1 [E29.1*], which IC50 is on record?
A: 71.9 nM

Q: Which IC50 does the source give for COc1ccc([N+](=O)[O-])cc1NC(=S)N[C@@H](C(=O)Nc1ccc(C)c(C)c1)c1ccccc1 [E33.1*, (R)-2-[3-(2-methoxy-5-nitro-phenyl)-thioureido]-N-(3,4-dimethylphenyl)-2-phenyl acetamide] here?
A: 96 nM

Q: With COc1ccc([N+](=O)[O-])cc1NC(=O)NC(C(=O)Nc1cccc(C(F)(F)F)c1)c1ccccc1 (stereo not shown) [Experiment E31.2, 2-[3-(2-methoxy-5-nitro-phenyl)-ureido]-N-(3-trifluoromethylphenyl)-2-phenyl acetamide] as the compound, how does the IC50 read?
A: 202 nM

Q: COc1ccc([N+](=O)[O-])cc1NC(=S)NC(C(=O)Nc1ccc(C)c(C)c1)c1ccccc1 (stereo not shown) [Experiment E32.2, 2-[3-(2-methoxy-5-nitro-phenyl)-thioureido]-N-(3,4-dimethylphenyl)-2-phenyl acetamide] was tested. Which IC50 did it give?
A: 334 nM

Q: COc1ccc([N+](=O)[O-])cc1NC(=O)N[C@@H](C(=O)Nc1ccc(C)c(C)c1)c1ccccc1 [Experiment E32.5, (R)-2-[3-(2-methoxy-5-nitro-phenyl)-ureido]-N-(3,4-dimethylphenyl)-2-phenyl acetamide] was tested. Which IC50 did it give?
A: 25.9 nM

Q: COc1ccc([N+](=O)[O-])cc1NC(=O)NC(C(=O)Nc1ccc2c(c1)CCC2)c1ccsc1 (stereo not shown) [Experiment E42.1] was tested. Which IC50 did it give?
A: 114 nM

Q: COc1ccc([N+](=O)[O-])cc1NC(=S)NC(C(=O)Nc1ccc2c(c1)CCC2)c1ccsc1 (stereo not shown) [Experiment E42.2] was tested. Which IC50 did it give?
A: 131 nM

Source: patent US20040152741A1, “Arylglycine derivatives and their use as glycine transport inhibitors” (NPS Allelix Corporation, priority 2002, published 2004)
